Test results: patent US9422285B2, “Substituted pyrazolo[1,5-A]-pyridine-3-carboxamides and use thereof” (Bayer Pharma Aktiengesellschaft, priority 2014, dated 2016)
Structures can show the parent of a compound that is named as a salt.

biological target: T1, recombinant guanylate cyclase reporter cell line (Rattus norvegicus, UniProt P19686+P20595); assay: Effect on a recombinant guanylate cyclase reporter cell line (B-2); type: cell-based; conditions: in some cases mean values for individual determinations
T1 construct: expressed in transfected cells
T1 sequence (P19686 1-690): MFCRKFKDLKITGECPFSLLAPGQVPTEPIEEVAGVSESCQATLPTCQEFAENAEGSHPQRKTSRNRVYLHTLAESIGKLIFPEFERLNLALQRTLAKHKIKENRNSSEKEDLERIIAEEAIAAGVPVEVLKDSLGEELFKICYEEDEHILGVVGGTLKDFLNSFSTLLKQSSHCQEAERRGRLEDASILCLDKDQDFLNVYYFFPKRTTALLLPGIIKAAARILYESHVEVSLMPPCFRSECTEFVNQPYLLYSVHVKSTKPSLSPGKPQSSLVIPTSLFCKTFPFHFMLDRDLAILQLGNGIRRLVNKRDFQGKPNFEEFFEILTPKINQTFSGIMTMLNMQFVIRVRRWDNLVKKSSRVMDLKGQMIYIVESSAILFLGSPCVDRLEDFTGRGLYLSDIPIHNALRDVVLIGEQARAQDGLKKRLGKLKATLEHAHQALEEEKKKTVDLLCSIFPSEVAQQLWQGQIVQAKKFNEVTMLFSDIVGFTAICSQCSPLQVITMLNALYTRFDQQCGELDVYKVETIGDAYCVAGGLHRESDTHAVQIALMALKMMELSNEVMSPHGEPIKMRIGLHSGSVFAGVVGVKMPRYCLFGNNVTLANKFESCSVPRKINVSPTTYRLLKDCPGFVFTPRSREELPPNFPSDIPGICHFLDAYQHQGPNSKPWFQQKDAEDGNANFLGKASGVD
T1 sequence (P20595 1-619): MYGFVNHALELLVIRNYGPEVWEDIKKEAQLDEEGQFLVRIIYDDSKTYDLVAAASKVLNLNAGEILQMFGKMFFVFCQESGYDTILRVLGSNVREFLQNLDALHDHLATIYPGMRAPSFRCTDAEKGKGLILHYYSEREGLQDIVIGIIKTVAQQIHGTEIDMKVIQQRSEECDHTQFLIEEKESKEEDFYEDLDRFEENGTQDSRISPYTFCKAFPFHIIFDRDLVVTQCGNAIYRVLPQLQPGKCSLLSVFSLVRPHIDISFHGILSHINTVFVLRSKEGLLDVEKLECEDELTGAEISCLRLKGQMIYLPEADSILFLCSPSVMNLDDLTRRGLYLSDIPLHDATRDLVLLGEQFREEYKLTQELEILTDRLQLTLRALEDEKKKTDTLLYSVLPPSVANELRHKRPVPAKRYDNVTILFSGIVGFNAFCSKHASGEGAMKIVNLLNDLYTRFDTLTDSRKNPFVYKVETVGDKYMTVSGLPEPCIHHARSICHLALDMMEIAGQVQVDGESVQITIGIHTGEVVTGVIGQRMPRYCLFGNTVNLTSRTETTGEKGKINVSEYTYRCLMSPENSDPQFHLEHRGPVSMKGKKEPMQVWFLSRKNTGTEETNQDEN
Method: B-2. Effect on a Recombinant Guanylate Cyclase Reporter Cell Line
The cellular effect of the inventive compounds is determined using a recombinant guanylate cyclase reporter cell line, as described in F. Wunder et al., Anal. Biochem. 339, 104-112 (2005).
Representative MEC values (MEC=minimum effective concentration) for the inventive compounds are shown in the table below (in some cases as mean values for individual determinations): […]

MEC (minimum effective concentration)	Compound
0.3 µM	Cc1cc(OCc2c(F)cccc2F)n2nc(C)c(C(=O)N[C@@H](CO)c3cccs3)c2c1 [Example 176, 7-[(2,6-Difluorobenzyl)oxy]-N-[(1S)-2-hydroxy-1-(2-thienyl)ethyl]-2,5-dimethylpyrazolo[1,5-a]pyridine-3-carboxamide]
1.0 µM	Cc1cc(OCc2c(F)ccc(F)c2F)n2nc(C)c(C(=O)Nc3c(C)nn(CCO)c3C)c2c1 [Example 11, N-[1-(2-Hydroxyethyl)-3,5-dimethyl-1H-pyrazol-4-yl]-2,5-dimethyl-7-[(2,3,6-trifluorobenzyl)oxy]pyrazolo[1,5-a]pyridine-3-carboxamide]
10 µM	Cc1cc(OCc2c(F)cccc2F)n2nc(C)c(C(=O)NCC3CNCCO3)c2c1 (racemic) [Example 142, rac-7-[(2,6-Difluorobenzyl)oxy]-2,5-dimethyl-N-(morpholin-2-ylmethyl)pyrazolo[1,5-a]pyridine-3-carboxamide]
1.0 µM	Cc1cc(OCc2c(F)cccc2F)n2nc(C)c(C(=O)NCCCCCC#N)c2c1 [Example 63, N-(5-Cyanopentyl)-7-[(2,6-difluorobenzyl)oxy]-2,5-dimethylpyrazolo[1,5-a]pyridine-3-carboxamide]
2.0 µM	Cc1cc(OCc2c(F)cccc2F)n2nc(C)c(C(=O)NCC(C)(N)CC(F)F)c2c1 (single isomer, unassigned) [Example 46, ent-N-(2-Amino-4,4-difluoro-2-methylbutyl)-7-[(2,6-difluorobenzyl)oxy]-2,5-dimethylpyrazolo[1,5-a]pyridine-3-carboxamide]
0.3 µM	CSCCC(N)CNC(=O)c1c(C)nn2c(OCc3c(F)cccc3F)cc(C)cc12 (racemic) [Example 156, rac-N-[2-Amino-4-(methylsulphanyl)butyl]-7-[(2,6-difluorobenzyl)oxy]-2,5-dimethylpyrazolo[1,5-a]pyridine-3-carboxamide]
1.0 µM	COCC(C)(N)CNC(=O)c1c(C)nn2c(OCc3c(F)cccc3F)cc(C)cc12 (racemic) [Example 97, rac-N-(2-Amino-3-methoxy-2-methylpropyl)-7-[(2,6-difluorobenzyl)oxy]-2,5-dimethylpyrazolo[1,5-a]pyridine-3-carboxamide]
10 µM	Cc1cc(OCc2c(F)cccc2F)n2nc(C)c(C(=O)NCC3CNC(=O)O3)c2c1 (racemic) [Example 100, rac-7-[(2,6-Difluorobenzyl)oxy]-2,5-dimethyl-N-[(2-oxo-1,3-oxazolidin-5-yl)methyl]pyrazolo[1,5-a]pyridine-3-carboxamide]
1.0 µM	COc1cccc(C(CN)NC(=O)c2c(C)nn3c(OCc4c(F)cccc4F)cc(C)cc23)c1 (racemic) [Example 123, rac-N-[2-Amino-1-(3-methoxyphenyl)ethyl]-7-[(2,6-difluorobenzyl)oxy]-2,5-dimethylpyrazolo[1,5-a]pyridine-3-carboxamide]
3.0 µM	CCCC(C)(N)CNC(=O)c1c(C)nn2c(OCc3c(F)ccc(OC)c3F)cc(C)cc12 (racemic) [Example 161, rac-N-(2-Amino-2-methylpentyl)-7-[(2,6-difluoro-3-methoxybenzyl)oxy]-2,5-dimethylpyrazolo[1,5-a]pyridine-3-carboxamide]
3.0 µM	Cc1cc(OCc2c(F)ccc(F)c2F)n2nc(C)c(C(=O)NCCN3CCOCC3)c2c1 [Example 15, 2,5-Dimethyl-N-[2-(morpholin-4-yl)ethyl]-7-[(2,3,6-trifluorobenzyl)oxy]pyrazolo[1,5-a]pyridine-3-carboxamide]
3.0 µM	Cc1cc(OCc2c(F)cccc2F)n2nc(C)c(C(=O)NCC3(N)COC3)c2c1 [Example 60, N-[(3-Aminooxetan-3-yl)methyl]-7-[(2,6-difluorobenzyl)oxy]-2,5-dimethylpyrazolo[1,5-a]pyridine-3-carboxamide]
1.0 µM	Cc1cc(OCc2c(F)cccc2F)n2nc(C)c(C(=O)N[C@H](CO)c3ccc(C)o3)c2c1 [Example 178, 7-[(2,6-Difluorobenzyl)oxy]-N-[(1R)-2-hydroxy-1-(5-methyl-2-furyl)ethyl]-2,5-dimethylpyrazolo[1,5-a]pyridine-3-carboxamide]
1.0 µM	Cc1cc(OCc2c(F)cccc2F)n2nc(C)c(C(=O)NC3CCNC(C(F)(F)F)C3)c2c1 (centres unmarked) [Example 154, 7-[(2,6-Difluorobenzyl)oxy]-2,5-dimethyl-N-[2-(trifluoromethyl)piperidin-4-yl]pyrazolo[1,5-a]pyridine-3-carboxamide]
0.3 µM	Cc1cc(OCc2c(F)cccc2F)n2nc(C)c(C(=O)NCC3(N)CC3)c2c1 [Example 118, N-[(1-Aminocyclopropyl)methyl]-7-[(2,6-difluorobenzyl)oxy]-2,5-dimethylpyrazolo[1,5-a]pyridine-3-carboxamide]
0.3 µM	Cc1cc(OCc2c(F)cccc2F)n2nc(C)c(C(=O)NC(CN)c3ccc(F)c(F)c3)c2c1 (stereo not drawn) [Example 133, ent-N-[2-Amino-1-(3,4-difluorophenyl)ethyl]-7-[(2,6-difluorobenzyl)oxy]-2,5-dimethylpyrazolo[1,5-a]pyridine-3-carboxamide]
3.0 µM	Cc1cc(OCc2c(F)cccc2F)n2nc(C)c(C(=O)NC[C@@H]3CCCCN3)c2c1 [Example 129, 7-[(2,6-Difluorobenzyl)oxy]-2,5-dimethyl-N-[(2S)-piperidin-2-ylmethyl]pyrazolo[1,5-a]pyridine-3-carboxamide]
3.0 µM	Cc1cc(OCc2c(F)cccc2F)n2nc(C)c(C(=O)NCC(N)c3ccc4c(c3)OCCO4)c2c1 (racemic) [Example 110, rac-N-[2-Amino-2-(2,3-dihydro-1,4-benzodioxin-6-yl)ethyl]-7-[(2,6-difluorobenzyl)oxy]-2,5-dimethylpyrazolo[1,5-a]pyridine-3-carboxamide]
3.0 µM	Cc1cc(OCc2c(F)cccc2F)n2nc(C)c(C(=O)NC3CC(C)Nc4ccc(C(F)(F)F)nc43)c2c1 (single isomer, unassigned; ent-7) [Example 86, ent-7-[(2,6-Difluorobenzyl)oxy]-2,5-dimethyl-N-[2-methyl-6-(trifluoromethyl)-1,2,3,4-tetrahydro-1,5-naphthyridin-4-yl]pyrazolo[1,5-a]pyridine-3-carboxamide]
1.0 µM	Cc1cc(OCc2c(F)cccc2F)n2nc(C)c(C(=O)NCC(C)(N)CF)c2c1 (single isomer, unassigned) [Example 40, ent-N-(2-Amino-3-fluoro-2-methylpropyl)-7-[(2,6-difluorobenzyl)oxy]-2,5-dimethylpyrazolo[1,5-a]pyridine-3-carboxamide]
0.3 µM	Cc1cc(OCc2c(F)cccc2F)n2nc(C)c(C(=O)NC3CC(=O)Nc4ccccc43)c2c1 (racemic) [Example 76, rac-7-[(2,6-Difluorobenzyl)oxy]-2,5-dimethyl-N-(2-oxo-1,2,3,4-tetrahydroquinolin-4-yl)pyrazolo[1,5-a]pyridine-3-carboxamide trifluoroacetate]
0.3 µM	Cc1cc(OCc2c(F)cccc2F)n2nc(C)c(C(=O)NCC(C)(N)CCC(F)(F)F)c2c1 (single isomer, unassigned) [Example 42, ent-N-(2-Amino-5,5,5-trifluoro-2-methylpentyl)-7-[(2,6-difluorobenzyl)oxy]-2,5-dimethylpyrazolo[1,5-a]pyridine-3-carboxamide]
1.0 µM	Cc1cc(OCc2c(F)cccc2F)n2nc(C)c(C(=O)NCC(F)(F)CN)c2c1 [Example 81, N-(3-Amino-2,2-difluoropropyl)-7-[(2,6-difluorobenzyl)oxy]-2,5-dimethylpyrazolo[1,5-a]pyridine-3-carboxamide]
